Results taken from the CheMixHub viscosity set.

Assay: xn = mol fraction of the nth substance listed

CCCCOC(=O)c1ccccc1 + CCCCCCCCCCCC
101 kPa
Settings | viscosity [mPa·s]
298.15 K, x2 = 0.0369 | 2.578
298.15 K, x2 = 0.0748 | 2.463
298.15 K, x2 = 0.1143 | 2.347
298.15 K, x2 = 0.1505 | 2.251
298.15 K, x2 = 0.1939 | 2.149
298.15 K, x2 = 0.2329 | 2.064
298.15 K, x2 = 0.2775 | 1.977
298.15 K, x2 = 0.3263 | 1.893
298.15 K, x2 = 0.3672 | 1.834
298.15 K, x2 = 0.4144 | 1.759
298.15 K, x2 = 0.4576 | 1.702
298.15 K, x2 = 0.5085 | 1.649
298.15 K, x2 = 0.5525 | 1.594
298.15 K, x2 = 0.6026 | 1.549
298.15 K, x2 = 0.6499 | 1.506
298.15 K, x2 = 0.7176 | 1.457
298.15 K, x2 = 0.7662 | 1.428
298.15 K, x2 = 0.8184 | 1.399
298.15 K, x2 = 0.8852 | 1.372
308.15 K, x2 = 0.0565 | 2.041
308.15 K, x2 = 0.0869 | 1.968
308.15 K, x2 = 0.1399 | 1.857
308.15 K, x2 = 0.1662 | 1.807
308.15 K, x2 = 0.2145 | 1.722
308.15 K, x2 = 0.2546 | 1.662
308.15 K, x2 = 0.3019 | 1.596
308.15 K, x2 = 0.3408 | 1.548
308.15 K, x2 = 0.3915 | 1.49
308.15 K, x2 = 0.4297 | 1.451
308.15 K, x2 = 0.4845 | 1.4
308.15 K, x2 = 0.5231 | 1.367
308.15 K, x2 = 0.5719 | 1.328
308.15 K, x2 = 0.6276 | 1.287
308.15 K, x2 = 0.68 | 1.256
308.15 K, x2 = 0.7278 | 1.229
308.15 K, x2 = 0.7842 | 1.202
308.15 K, x2 = 0.8501 | 1.176
308.15 K, x2 = 0.9392 | 1.151
318.15 K, x2 = 0.0245 | 1.764
318.15 K, x2 = 0.0618 | 1.688
318.15 K, x2 = 0.101 | 1.612
318.15 K, x2 = 0.1422 | 1.543
318.15 K, x2 = 0.181 | 1.487
318.15 K, x2 = 0.2247 | 1.427
318.15 K, x2 = 0.2652 | 1.376
318.15 K, x2 = 0.3117 | 1.325
318.15 K, x2 = 0.355 | 1.282
318.15 K, x2 = 0.4033 | 1.238
318.15 K, x2 = 0.4479 | 1.202
318.15 K, x2 = 0.5006 | 1.163
318.15 K, x2 = 0.5557 | 1.127
318.15 K, x2 = 0.604 | 1.099
318.15 K, x2 = 0.6185 | 1.091
318.15 K, x2 = 0.7124 | 1.045
318.15 K, x2 = 0.7679 | 1.024
318.15 K, x2 = 0.8278 | 1.006
318.15 K, x2 = 0.9612 | 0.974

CCCCOC(=O)c1ccccc1 + CCCCCCCCCCCCCC
101 kPa
Settings | viscosity [mPa·s]
298.15 K, x2 = 0.0346 | 2.623
298.15 K, x2 = 0.0683 | 2.562
298.15 K, x2 = 0.1072 | 2.49
298.15 K, x2 = 0.1432 | 2.436
298.15 K, x2 = 0.1795 | 2.38
298.15 K, x2 = 0.2175 | 2.328
298.15 K, x2 = 0.2506 | 2.282
298.15 K, x2 = 0.2944 | 2.226
298.15 K, x2 = 0.3362 | 2.186
298.15 K, x2 = 0.3761 | 2.154
298.15 K, x2 = 0.4036 | 2.128
298.15 K, x2 = 0.472 | 2.08
298.15 K, x2 = 0.5203 | 2.055
298.15 K, x2 = 0.5754 | 2.03
298.15 K, x2 = 0.6238 | 2.015
298.15 K, x2 = 0.6833 | 1.995
298.15 K, x2 = 0.7394 | 1.989
298.15 K, x2 = 0.8084 | 1.99
298.15 K, x2 = 0.8738 | 2.005
308.15 K, x2 = 0.0474 | 2.117
308.15 K, x2 = 0.0876 | 2.049
308.15 K, x2 = 0.1255 | 1.995
308.15 K, x2 = 0.1576 | 1.956
308.15 K, x2 = 0.1932 | 1.916
308.15 K, x2 = 0.2315 | 1.876
308.15 K, x2 = 0.2692 | 1.842
308.15 K, x2 = 0.3166 | 1.806
308.15 K, x2 = 0.3536 | 1.783
308.15 K, x2 = 0.3967 | 1.758
308.15 K, x2 = 0.4455 | 1.735
308.15 K, x2 = 0.4967 | 1.714
308.15 K, x2 = 0.5574 | 1.696
308.15 K, x2 = 0.5991 | 1.684
308.15 K, x2 = 0.6454 | 1.675
308.15 K, x2 = 0.7094 | 1.667
308.15 K, x2 = 0.7691 | 1.664
308.15 K, x2 = 0.8229 | 1.665
308.15 K, x2 = 0.9132 | 1.68
318.15 K, x2 = 0.0221 | 1.779
318.15 K, x2 = 0.0602 | 1.728
318.15 K, x2 = 0.0938 | 1.687
318.15 K, x2 = 0.1331 | 1.646
318.15 K, x2 = 0.1693 | 1.612
318.15 K, x2 = 0.2101 | 1.576
318.15 K, x2 = 0.249 | 1.546
318.15 K, x2 = 0.2933 | 1.516
318.15 K, x2 = 0.3356 | 1.491
318.15 K, x2 = 0.3836 | 1.467
318.15 K, x2 = 0.4273 | 1.448
318.15 K, x2 = 0.4797 | 1.428
318.15 K, x2 = 0.5267 | 1.413
318.15 K, x2 = 0.5825 | 1.399
318.15 K, x2 = 0.6341 | 1.388
318.15 K, x2 = 0.6948 | 1.38
318.15 K, x2 = 0.7506 | 1.377
318.15 K, x2 = 0.8156 | 1.375
318.15 K, x2 = 0.8778 | 1.381

CCNCC + CCCCCCCCCCO
viscosity [mPa·s], 101 kPa
Settings | x1 = 0.5973 | x2 = 0.0971 | x2 = 0.1985 | x2 = 0.2971 | x2 = 0.4003 | x2 = 0.5148 | x2 = 0.6024 | x2 = 0.7216 | x2 = 0.8014 | x2 = 0.8997
298.15 K | – | 0.472 | 0.762 | 1.184 | 1.834 | 2.865 | 3.979 | 5.858 | 7.47 | 9.664
303 K | 2.015 | – | – | – | – | – | – | – | – | –
313.15 K | – | 0.378 | 0.576 | 0.851 | 1.254 | 1.87 | 2.556 | 3.617 | 4.497 | 5.631

Nc1ccccc1 + CCCCCCCCCCO
viscosity [mPa·s], 100 kPa
Settings | x1 = 0.0718 | x1 = 0.1593 | x1 = 0.2335 | x1 = 0.3471 | x1 = 0.4452 | x1 = 0.5618 | x1 = 0.6428 | x1 = 0.7439 | x1 = 0.8518 | x1 = 0.9439
293.15 K | 12.8 | 11.23 | 10.05 | 8.62 | 7.44 | 6.23 | 5.57 | 4.95 | 4.47 | 4.31
303.15 K | 8.75 | 7.6 | 6.85 | 5.92 | 5.25 | 4.38 | 3.94 | 3.56 | 3.23 | 3.12
313.15 K | 6.16 | 5.4 | 4.9 | 4.28 | 3.84 | 3.3 | 2.97 | 2.7 | 2.5 | 2.44
323.15 K | 4.47 | 4 | 3.65 | 3.21 | 2.89 | 2.51 | 2.28 | 2.1 | 1.95 | 1.91
